Measurements from patent US12227551B2, “Membrane bound IL12 compositions and methods for tunable regulation” (Obsidian Therapeutics, Inc., priority 2018, dated 2025).

System: primary human T cells
Assay: Surface CAR and surface IL12 in CAR+ gate after 20 hours vardenafil, CD19-CAR-P2A-mbIL12-PDE5 constructs (Example 8; Table 22)
Type: cell-based
Conditions: 5 μM Vardenafil, CAR+ cell gate, regulated CD19-CAR-P2A-mbIL12-PDE5 constructs
Protocol: On day 0, primary human T cells were stimulated with Dynabeads (T-expander CD3/CD28) at a 3:1 bead: cell ratio in media containing 10% fetal bovine serum (FBS). The next day, lentivirus produced with constructs OT-001407 (CAR only control), OT-001895, OT-001894, OT-001891, OT-002044 were added in the presence of reduced serum (5% FBS). On day 2, the cells were diluted 1:2 with fresh 10% FBS media. […] After overnight incubation, transduction efficiency was analyzed by flow cytometry using CD19-Fc to detect surface CAR expression. Surface IL12 expression within the CAR+ cell gate was detected with an anti-IL12p70 antibody (BD, Franklin Lakes, N.J.) and is shown in Table 22.

CCCc1nc(C)c2c(=O)[nH]c(-c3cc(S(=O)(=O)N4CCN(CC)CC4)ccc3OCC)nn12 [vardenafil, Vardenafil]
increases in expression of surface IL12 compared to vehicle control: 17-24 fold
